Laboratory results published in patent publication US11913944B2, “Photoaffinity probes” (Promega Corporation, priority 2019, dated 2024).
pIC50: −log10 of the molar value.

What was measured:
[1] = Influence of UV irradiation on fluorescence intensity of SAHA-fluorophore conjugates; type: physicochemical; settings: UV irradiated 0-30 minutes; HEK293T cells expressing HDAC6-NANOLUC fusion
Procedure: During development of the BRET approach described herein for estimating crosslinking efficiency, experiments were conducted to determine the influence of UV irradiation on the bioluminescent intensity of the energy donor NANOLUC, and the fluorescence intensity of three fluorophores that can be used as energy acceptors (FIGS. 12-15). The model system for these experiments (FIG. 13) was the interaction between HDAC6 fused to NANOLUC and SAHA (vorinostat), which binds to HDAC6 and was conjugated to one of three fluorophores NCT, TAMRA, and BODIPY576 (FIG. 12). In these experiments HEK293T cells transiently expressing HAD6-NANOLUC fusion were treated for 2 hours with serial dilution of SAHA-fluorophore conjugate, then UV irradiated for 0-30 minutes and subsequently treated with NANOGLO detection reagent. […] Thus, NANOLUC and NCT were chosen as a BRET donor and acceptor pair for the assays estimating photocrosslinking efficiency.

[2] = tested on: STAT5 reporter; test: STAT5 reporter expression in K-562 cells; type: cell-based; settings: Homo sapiens, K562; K-562 cells transiently expressing a STAT5 reporter, 24 hours; read-out: IC50, inhibited expression of a STAT5 reporter
Procedure: Dasatinib is a broad kinase inhibitor targeting the BCR-ABL oncogenic pathway, thereby reducing the downstream activation of STAT5. K-562 cells transiently expressing a STAT5 reporter (2×10^5 cells/mL) were treated with serial dilution of dasatinib or a derivative having cleavable chloroalkane tag (+/−a PRG) for 24 hours and then tested for expression of the STAT5 reporter.

| SMILES | Fluorescence intensity under UV irradiation [1] | pIC50 [2] |
| --- | --- | --- |
| O=C(CCCCCCC(=O)Nc1ccc(CNC(=O)CCc2ccc3n2[B-](F)(F)[N+]2=C(c4ccc[nH]4)C=CC2=C3)cc1)NO [SAHA-BODIPY576] | decreased the fluorescence intensity | – |
| O=C(CCCCCCC(=O)Nc1ccc(CNC(=O)c2ccc(C(=O)O)c(C3=c4cc5c6c(c4Oc4c3cc3c7c4CCCN7CCCC3)CCC[N+]=6CCCC5)c2)cc1)NO [SAHA-NCT] | not significantly affected | – |
| CN(C)c1ccc2c(-c3cc(C(=O)NCc4ccc(NC(=O)CCCCCCC(=O)NO)cc4)ccc3C(=O)O)c3ccc(=[N+](C)C)cc-3oc2c1 [SAHA-TMR] | decreased the fluorescence intensity | – |
| Cc1nc(Nc2ncc(C(=O)Nc3c(C)cccc3Cl)s2)cc(N2CCN(CCO)CC2)n1 [dasatinib] | – | 9.40 |
